In PMC7925099, “Identification of an Antiretroviral Small Molecule That Appears To Be a Host-Targeting Inhibitor of HIV-1 Assembly” (Journal of Virology, 2021):
Like-named read-outs stand apart in the source and are kept apart here.

Assays:
in vitro = details: human
Experimental: For each viral inhibition assay, a cytotoxicity assay was performed in parallel on uninfected cells by adding 1/10 volume of alamarBlue (Thermo Fisher, Waltham, MA; DAL1199) to the plates, followed by thorough mixing. AlamarBlue-treated plates were incubated for 2 to 3 h at 37°C (the timing was optimized for the linear signal), mixed well, and read using a fluorescence plate reader with 560 nm and 590 nm as the excitation and emission settings, respectively (Synergy H1; BioTek Instruments, Inc.).
(§3) EC50 and CC50 values were determined in Excel using four-parameter logistic regression analysis of dose-response data generated from the viral inhibition or cytotoxicity assays, respectively. […] Average EC50 and CC50 values were calculated using the geometric mean and average values were reported with the geometric standard deviation (GSD).

HIV-1 NL4-3 RLuc = assay: MT-2 spreading infection assay (inhibition of HIV-1 replication); details: for SI (CC50/EC50): from average values
Experimental: Inhibition of HIV-1 viral replication was assayed in a spreading infection using MT-2 cells and NL4-3 RLuc reporter virus. For dose-response curves, compounds were initially diluted with DMSO to 100-fold the starting concentration in a 96-well plate and subjected to a series of 3-fold dilutions in DMSO for a total of eight or nine dilutions. If a single compound concentration was tested, the compound was diluted to 100-fold the desired concentration in DMSO. Compounds were then diluted 50-fold with infection media prepared by diluting NL4-3 RLuc virus stock to 400 IU/100 μl with complete RPMI. Then, 100 μl of 50-fold-diluted compound was transferred to 20,000 MT-2 cells that were preseeded in 96-well plates in 100 μl of complete RPMI for a final volume of 200 μl, followed by incubation at 37°C for 96 h. The final MOI in infected plates was 0.02, and the final DMSO concentration in all wells was 1%. All assays were run with three replicates. For each replicate, one well received DMSO only, and one well received medium only for normalization and background correction. […] Plates were read on a luminescence plate reader (Synergy H1; BioTek Instruments, Inc.).
as §3

G3BP1 = target: T1, G3BP1 (Homo sapiens, UniProt Q13283); assay: Biotin-G3BP1 proximity ligation assay; format: cell-based; details: 293T-HIV; for PLA spots/cell (biotin-G3BP1 PLA): 10 μM, 16 h
T1 construct: endogenous in cells; host or cells: 293T-HIV cells
T1 sequence (Q13283 whole entry): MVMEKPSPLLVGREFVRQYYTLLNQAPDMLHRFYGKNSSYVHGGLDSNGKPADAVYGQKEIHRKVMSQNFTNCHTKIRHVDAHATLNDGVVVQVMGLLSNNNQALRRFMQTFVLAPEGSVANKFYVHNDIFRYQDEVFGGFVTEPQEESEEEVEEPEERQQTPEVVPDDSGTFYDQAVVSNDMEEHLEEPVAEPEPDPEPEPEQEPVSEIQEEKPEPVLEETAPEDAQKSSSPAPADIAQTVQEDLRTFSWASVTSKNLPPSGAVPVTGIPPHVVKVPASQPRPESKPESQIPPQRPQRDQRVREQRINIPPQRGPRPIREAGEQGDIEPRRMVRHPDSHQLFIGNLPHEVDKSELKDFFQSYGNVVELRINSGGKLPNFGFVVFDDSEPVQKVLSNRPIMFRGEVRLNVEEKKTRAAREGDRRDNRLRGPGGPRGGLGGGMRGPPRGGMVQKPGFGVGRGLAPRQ
Experimental: (§1) For each treatment, one-half of a Grace Biolabs Culture Well silicone chamber (Millipore-Sigma; GBL103380) was attached to a cover glass (Carl Zeiss, Oberkochen, Germany; catalog no. 474030-9000-000) to create four chambers on the cover glass. Each chambered cover glass was placed into a well of a 6-well plate, and the chambers were coated with poly-L-lysine and allowed to dry overnight. The next day, ∼4 × 10^3 293T/17 or 293T-HIV cells were seeded into each chamber, followed by incubation at 37°C for 5 to 6 h. After the cells adhered, they were treated with compound or DMSO. At 16 h posttreatment, the cells were fixed for 15 min in 4% paraformaldehyde in PBS (pH 7.4), permeabilized in 0.5% (wt/vol) saponin in PBS (pH 7.4) for 10 min, and blocked in Duolink blocking solution (Millipore-Sigma) at 37°C for 30 min. […] For quantification, 5 to 10 fields, each containing at least three IF-positive cells, were chosen at random and imaged using identical exposure times for each channel (100 to 150 ms for the PLA channel in red; 0.5 to 1 s for the IF channel in green, depending on the IF primary antibody; and 20 ms for the DAPI channel in blue). […] The ROIs identified in the IF channel were applied to a maximum intensity z projection of the PLA channel, and PLA spots within the ROI were counted using the find maxima function in Fiji, with noise threshold optimized to identify only PLA spots. Nuclei from each field were counted manually to determine the number of cells. […]

TIAR and G3BP1 = assay: TIAR-G3BP1 proximity ligation assay in compound-treated cells; format: cell-based, human; details: 10 μM; 16 h; 293T-HIV
Experimental: as §1, with “DMSO.” for “DMSO. At 16 h posttreatment, the cells were fixed for 15 min in 4% paraformaldehyde in PBS (pH 7.4), permeabilized in 0.5% (wt/vol) saponin in PBS (pH 7.4) for 10 min, and blocked in Duolink blocking solution (Millipore-Sigma) at 37°C for 30 min.”

HIV-1 Gag = assay: Biotin-Gag proximity ligation assay; format: cell-based; details: for biotin-Gag PLA spots/cell: 16 h
Experimental: (§2) For each treatment, one-half of a Grace Biolabs Culture Well silicone chamber (Millipore-Sigma; GBL103380) was attached to a cover glass (Carl Zeiss, Oberkochen, Germany; catalog no. 474030-9000-000) to create four chambers on the cover glass. Each chambered cover glass was placed into a well of a 6-well plate, and the chambers were coated with poly-L-lysine and allowed to dry overnight. The next day, ∼4 × 10^3 293T/17 or 293T-HIV cells were seeded into each chamber, followed by incubation at 37°C for 5 to 6 h. After the cells adhered, they were treated with compound or DMSO. At 16 h posttreatment, the cells were fixed for 15 min in 4% paraformaldehyde in PBS (pH 7.4), permeabilized in 0.5% (wt/vol) saponin in PBS (pH 7.4) for 10 min, and blocked in Duolink blocking solution (Millipore-Sigma) at 37°C for 30 min. The cells were incubated in primary antibodies using the following concentrations: for the Gag-biotin PLA, mouse αGag p24 was used at 0.2 μg/ml, and rabbit αbiotin was used at 4 μg/ml; for the biotin-ABCE1 PLA, rabbit αABCE1 was used at 0.3 μg/ml, and mouse αbiotin was used at 0.7 μg/ml; for the biotin-DDX6 PLA, rabbit αDDX6 was used at 0.5 μg/ml and mouse αbiotin was used at 0.3 μg/ml; for the ABCE1-DDX6 PLA, rabbit αABCE1 was used at 0.3 μg/ml, and mouse αDDX6 was used at 0.3 μg/ml; for the biotin-G3BP1 PLA, rabbit αG3BP1 was used at 0.025 μg/ml, and mouse αbiotin was used at 0.2 μg/ml; for the TIAR-G3BP1 PLA, rabbit αG3BP1 was used at 0.025 μg/ml, and mouse αTIAR was used at 0.025 μg/ml; for the biotin-XRN1 PLA, rabbit α XRN1 was used at 0.5 μg/ml, and mouse αbiotin was used at 0.2 μg/ml; and for the DDX6-XRN1 PLA, rabbit αXRN1 was used at 0.5 μg/ml, and mouse αDDX6 was used at 0.5 μg/ml. For the NI control PLA experiments, NI control antibodies from the relevant species were used at the same concentration as the primary antibody they replaced. Primary incubation was followed by incubation with Duolink reagents (Millipore-Sigma): oligonucleotide-linked secondary antibody, ligation mix, and red amplification/detection mix, with washes in between, in accordance with the Duolink protocol. For concurrent IF analysis following the final 1× PLA buffer B washes, cells were incubated for 30 min at room temperature with 1:1,000 Alexa Fluor 488-anti-mouse secondary antibody. Cover glasses were mounted using Duolink in situ mounting medium with DAPI (4′,6′-diamidino-2-phenylindole; Millipore-Sigma), sealed to the glass slides with clear nail polish, allowed to dry for 24 h at room temperature, and stored at −20°C. Imaging was performed with a Zeiss Axio Observer.Z1/7 deconvolution microscope using Zeiss Plan-Apochromat 63×/aperture 1.4 objective with oil immersion, with Zen 2.6 (blue edition) software. For quantification, 5 to 10 fields, each containing at least three IF-positive cells, were chosen at random and imaged using identical exposure times for each channel (100 to 150 ms for the PLA channel in red; 0.5 to 1 s for the IF channel in green, depending on the IF primary antibody; and 20 ms for the DAPI channel in blue). Images were captured as a Z-stack of 80 to 90 0.24-μm slices that included the entire cell body and 5 μm above and below the cell (∼20 μm total). To determine the number of PLA spots per cell, image stacks were processed as follows in Fiji ([96]). First, an in-focus slice from the IF channel was selected using the Find Focused Slices plugin within ImageJ (Q. Tseng, 2020 [https://sites.google.com/site/qingzongtseng/find-focus]), and thresholding was used to generate regions of interest (ROI) that contained only cells. The ROIs identified in the IF channel were applied to a maximum intensity z projection of the PLA channel, and PLA spots within the ROI were counted using the find maxima function in Fiji, with noise threshold optimized to identify only PLA spots. Nuclei from each field were counted manually to determine the number of cells. […]

DDX6 = target: T2, DDX6 (Homo sapiens, UniProt P26196); assay: Biotin-DDX6 proximity ligation assay; format: cell-based; details: for biotin-DDX6 PLA spots/cell: 16 h
T2 construct: endogenous in cells; host or cells: 293T/17 and 293T-HIV cells
T2 sequence (P26196 1-483): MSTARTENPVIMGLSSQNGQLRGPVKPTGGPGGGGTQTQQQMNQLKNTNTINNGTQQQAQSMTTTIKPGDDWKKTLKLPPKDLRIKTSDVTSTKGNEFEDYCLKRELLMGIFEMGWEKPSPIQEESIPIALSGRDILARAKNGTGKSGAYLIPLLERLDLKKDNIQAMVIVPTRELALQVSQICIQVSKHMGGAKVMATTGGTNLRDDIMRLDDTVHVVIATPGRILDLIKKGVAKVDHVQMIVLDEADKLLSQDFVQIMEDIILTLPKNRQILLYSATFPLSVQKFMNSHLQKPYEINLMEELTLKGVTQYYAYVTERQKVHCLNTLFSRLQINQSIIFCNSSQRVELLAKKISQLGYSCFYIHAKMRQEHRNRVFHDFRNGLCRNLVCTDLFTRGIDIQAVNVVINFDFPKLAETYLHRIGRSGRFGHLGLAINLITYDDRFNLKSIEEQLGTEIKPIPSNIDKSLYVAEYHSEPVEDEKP
Experimental: as §2

DDX6 and XRN1 = assay: DDX6-XRN1 proximity ligation assay in compound-treated cells; format: cell-based, human; details: 10 μM; 16 h; 293T-HIV
Experimental: as §1, with “DMSO.” for “DMSO. At 16 h posttreatment, the cells were fixed for 15 min in 4% paraformaldehyde in PBS (pH 7.4), permeabilized in 0.5% (wt/vol) saponin in PBS (pH 7.4) for 10 min, and blocked in Duolink blocking solution (Millipore-Sigma) at 37°C for 30 min.”

XRN1 = target: T3, XRN1 (Homo sapiens, UniProt Q8IZH2); assay: Biotin-XRN1 proximity ligation assay; format: cell-based; details: 293T-HIV; for PLA spots/cell (biotin-XRN1 PLA): 10 μM, 16 h
T3 construct: endogenous in cells; host or cells: 293T-HIV cells
T3 sequence (Q8IZH2 whole entry): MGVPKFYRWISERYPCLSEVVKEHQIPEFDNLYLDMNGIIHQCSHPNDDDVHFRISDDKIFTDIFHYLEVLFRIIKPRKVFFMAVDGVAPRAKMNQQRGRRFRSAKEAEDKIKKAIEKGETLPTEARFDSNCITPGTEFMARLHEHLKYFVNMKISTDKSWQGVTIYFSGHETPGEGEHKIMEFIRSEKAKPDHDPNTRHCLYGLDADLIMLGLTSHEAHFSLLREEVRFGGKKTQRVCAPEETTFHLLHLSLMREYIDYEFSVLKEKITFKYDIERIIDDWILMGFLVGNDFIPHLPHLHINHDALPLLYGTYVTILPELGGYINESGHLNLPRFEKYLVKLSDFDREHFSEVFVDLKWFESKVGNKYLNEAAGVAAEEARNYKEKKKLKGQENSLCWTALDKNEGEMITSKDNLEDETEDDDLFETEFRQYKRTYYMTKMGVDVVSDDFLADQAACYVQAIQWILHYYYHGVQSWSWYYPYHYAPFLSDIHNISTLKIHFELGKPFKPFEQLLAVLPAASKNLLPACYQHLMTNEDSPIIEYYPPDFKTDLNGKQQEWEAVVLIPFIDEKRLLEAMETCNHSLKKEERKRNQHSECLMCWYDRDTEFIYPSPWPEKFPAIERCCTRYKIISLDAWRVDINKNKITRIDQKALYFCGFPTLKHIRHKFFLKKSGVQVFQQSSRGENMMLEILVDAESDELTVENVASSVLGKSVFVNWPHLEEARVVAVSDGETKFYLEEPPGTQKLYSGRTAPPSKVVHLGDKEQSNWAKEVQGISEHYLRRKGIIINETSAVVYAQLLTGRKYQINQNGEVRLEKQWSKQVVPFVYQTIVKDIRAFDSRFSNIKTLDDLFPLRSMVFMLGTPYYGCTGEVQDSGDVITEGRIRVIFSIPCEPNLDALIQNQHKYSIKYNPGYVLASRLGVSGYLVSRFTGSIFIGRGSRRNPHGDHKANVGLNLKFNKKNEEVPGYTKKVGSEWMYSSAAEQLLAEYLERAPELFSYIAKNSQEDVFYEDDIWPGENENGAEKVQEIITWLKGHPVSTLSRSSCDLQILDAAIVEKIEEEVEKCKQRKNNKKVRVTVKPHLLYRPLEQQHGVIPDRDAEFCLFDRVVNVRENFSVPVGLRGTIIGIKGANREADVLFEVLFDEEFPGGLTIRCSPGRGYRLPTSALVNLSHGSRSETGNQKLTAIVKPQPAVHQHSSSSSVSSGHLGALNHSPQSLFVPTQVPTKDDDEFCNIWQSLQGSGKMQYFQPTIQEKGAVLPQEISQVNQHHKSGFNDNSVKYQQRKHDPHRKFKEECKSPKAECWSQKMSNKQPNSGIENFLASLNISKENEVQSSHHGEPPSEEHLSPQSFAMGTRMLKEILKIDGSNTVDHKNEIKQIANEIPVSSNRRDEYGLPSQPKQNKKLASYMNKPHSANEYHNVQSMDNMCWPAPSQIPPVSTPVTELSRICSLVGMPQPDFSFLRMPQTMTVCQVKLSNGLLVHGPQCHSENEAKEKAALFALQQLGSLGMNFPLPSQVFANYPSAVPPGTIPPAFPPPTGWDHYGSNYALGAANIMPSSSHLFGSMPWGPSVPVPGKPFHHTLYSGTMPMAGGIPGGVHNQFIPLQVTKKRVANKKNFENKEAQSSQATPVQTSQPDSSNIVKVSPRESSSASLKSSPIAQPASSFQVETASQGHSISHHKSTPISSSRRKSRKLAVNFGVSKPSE
Experimental: as §1

ABCE1 = target: T4, ABCE1 (Homo sapiens, UniProt P61221); assay: Biotin-ABCE1 proximity ligation assay; format: cell-based; details: for biotin-ABCE1 PLA spots/cell: 16 h
T4 construct: endogenous in cells; host or cells: 293T/17 and 293T-HIV cells
Experimental: as §2

HIV-1 NL4-3 = format: cell-based; details: MT-2 cells, 37 weeks of selection

What does the source list for `COc1ccc(/C=C/C2NCCc3cc(OCc4ccccc4)c(OC)cc32)cc1` (stereo not drawn) [PAV-493]?
CC50 (in vitro; CC50 (μM)): 21 µM; SI (CC50/EC50) (HIV-1 NL4-3 RLuc; MT-2 cells): 37

What does the source list for `COc1cc2c(cc1OCc1ccccc1)CCNC2/C=C/c1cccc(OCc2ccccc2)c1` (stereo not drawn) [PAV-494]?
CC50 (in vitro; CC50 (μM)): 4.1 µM; EC50 (HIV-1 NL4-3 RLuc; Human immunodeficiency virus 1, NL43, MT2): 0.244 µM; SI (CC50/EC50) (HIV-1 NL4-3 RLuc; MT-2 cells): 17

With `N#CCC(NC(=O)CCOCCOCCNC(=O)CCCC[C@@H]1SCC2NC(=O)NC21)C(=O)NCCCCOc1ccccc1` (stereo partly drawn) [PAV-543, reference compound] as the compound, how does the “PLA spots/cell (biotin-G3BP1 PLA)” value (G3BP1) read?
Its value is 1.6.

And the “PLA spots/cell (TIAR-G3BP1 PLA)” value (TIAR and G3BP1)?
The value was 51.5.

What about the “biotin-Gag PLA spots/cell” value (HIV-1 Gag; 10 μM, 293T-HIV (HIV +)) of the same compound?
The value was 9.3.

What about the “biotin-DDX6 PLA spots/cell” value (DDX6; 10 μM, 293T-HIV (HIV +)) of the same compound?
Its value is 12.6.

What about the “PLA spots/cell (DDX6-XRN1 PLA)” value (DDX6 and XRN1) of the same compound?
The value was 77.4.

And the CC50 (in vitro; CC50)?
Its CC50 is > 100 µM.

And the “PLA spots/cell (biotin-XRN1 PLA)” value (XRN1)?
Its value is 3.8.

What about the “biotin-ABCE1 PLA spots/cell” value (ABCE1; 10 μM, 293T-HIV (HIV +)) of the same compound?
Its value is 4.5.

What about the EC50 (HIV-1 NL4-3 RLuc; Human immunodeficiency virus 1, NL43, T-cell, read-out: EC50MT-2) of the same compound?
Its EC50 is > 100 µM.

With `COc1cc(C)c(C=CC2NCCc3cc(OCc4ccccc4)c(OC)cc32)cc1OCCCCNC(=O)C(CC1(C)N=N1)NC(=O)CCOCCOCCNC(=O)CCCCC1SCC2NC(=O)NC21` (stereo not drawn) [PAV-818] as the compound, how does the “PLA spots/cell (biotin-G3BP1 PLA)” value (G3BP1) read?
The value was 6.3.

What about the “colocalization with the stress granule protein G3BP1” value (G3BP1; PLA) of the same compound?
The value was “does not colocalize”.

What about the “PLA spots/cell (TIAR-G3BP1 PLA)” value (TIAR and G3BP1) of the same compound?
The value was 35.0.

And the “biotin-Gag PLA spots/cell” value (HIV-1 Gag; 5 μM, 293T-HIV (HIV +))?
Its value is 32.6.

And the “biotin-Gag PLA spots/cell” value (HIV-1 Gag; 10 μM, 293T-HIV (HIV +))?
Its value is 51.5.

And the “biotin-Gag PLA spots/cell” value (HIV-1 Gag; 10 μM, uninfected 293T (HIV −))?
Its value is 7.1.

What about the “biotin-Gag PLA spots/cell” value (HIV-1 Gag; 20 μM, 293T-HIV (HIV +)) of the same compound?
Its value is 111.8.

And the “fold more biotin-Gag PLA spots than with PAV-543” value (HIV-1 Gag; both at 10 μM, 293T-HIV)?
The value was 5.5 fold.

And the “biotin-DDX6 PLA spots/cell” value (DDX6; 5 μM, 293T-HIV (HIV +))?
Its value is 47.4.

And the “biotin-DDX6 PLA spots/cell” value (DDX6; 10 μM, 293T-HIV (HIV +))?
The value was 65.1.

And the “biotin-DDX6 PLA spots/cell” value (DDX6; 10 μM, uninfected 293T (HIV −))?
Its value is 58.0.

And the “biotin-DDX6 PLA spots/cell” value (DDX6; 20 μM, 293T-HIV (HIV +))?
Its value is 82.9.

What about the “fold more biotin-DDX6 PLA spots than in PAV-543-treated or DMSO-treated cells” value (DDX6; 293T-HIV) of the same compound?
The value was ~5.1 fold.

And the “PLA spots/cell (DDX6-XRN1 PLA)” value (DDX6 and XRN1)?
Its value is 35.2.

What about the CC50 (in vitro; CC50) of the same compound?
The CC50 was ~30 µM.

And the “PLA spots/cell (biotin-XRN1 PLA)” value (XRN1)?
Its value is 5.3.

And the “colocalization with the P-body marker XRN1” value (XRN1; PLA)?
Its value is “does not colocalize”.

And the “biotin-ABCE1 PLA spots/cell” value (ABCE1; 5 μM, 293T-HIV (HIV +))?
The value was 42.0.

And the “biotin-ABCE1 PLA spots/cell” value (ABCE1; 10 μM, 293T-HIV (HIV +))?
The value was 64.2.

And the “biotin-ABCE1 PLA spots/cell” value (ABCE1; 10 μM, uninfected 293T (HIV −))?
Its value is 72.9.

And the “biotin-ABCE1 PLA spots/cell” value (ABCE1; 20 μM, 293T-HIV (HIV +))?
Its value is 104.7.

What about the “fold more biotin-ABCE1 PLA spots than with PAV-543” value (ABCE1; both at 10 μM, 293T-HIV) of the same compound?
Its value is 14.3 fold.

And the EC50 (HIV-1 NL4-3 RLuc; Human immunodeficiency virus 1, NL43, T-cell, 96 h, read-out: EC50 for inhibition of HIV-1 replication)?
The EC50 was 0.951 µM.

And the “selectivity index (CC50/EC50)” value (HIV-1 NL4-3 RLuc; MT-2 cells, from the shown dose-response curve)?
The value was ~32.

For `Cc1c(O)cccc1C(=O)N[C@@H](CSc1ccccc1)[C@H](O)CN1C[C@H]2CCCC[C@H]2C[C@H]1C(=O)NC(C)(C)C` [nelfinavir, reference compound], which “resistance level reached: compound concentration allowing virus replication, fold higher than the EC50” value (HIV-1 NL4-3) is on record?
Its value is 16 fold.
